This is an account of results in the NIST ThermoML archive (doi:10.1016/j.jct.2015.09.005).

The structures appear in SMILES notation. ± gives the expanded uncertainty stated by the source.

For this data set the following is noted: Liquid, Gas chromatography.

Consider `CC1=COC(=O)[C@@H]2[C@@H]1CC[C@@H]2C`, for which the “vapor or sublimation pressure” value stood at 0.0012 ± 0.0001 kPa (298.15 K); 0.0029 ± 0.0003 kPa (308.15 K); 0.0066 ± 0.0007 kPa (318.15 K); 0.014 ± 0.002 kPa (328.15 K); 0.029 ± 0.003 kPa (338.15 K); 0.056 ± 0.006 kPa (348.15 K). Also, the “vapor or sublimation pressure” value (350 K) is given as 0.064 ± 0.006 kPa.

For `CC1=COC(=O)[C@H]2[C@@H]1CC[C@@H]2C`, the “vapor or sublimation pressure” value was 0.00092 ± 9e-05 kPa (298.15 K); 0.0022 ± 0.0002 kPa (308.15 K); 0.005 ± 0.0005 kPa (318.15 K); 0.011 ± 0.001 kPa (328.15 K); 0.022 ± 0.002 kPa (338.15 K); 0.045 ± 0.005 kPa (348.15 K). Where the note is “350 K”, the “vapor or sublimation pressure” value amounted to 0.05 ± 0.005 kPa.
